The target of series [1] is T1, gamma-glutamylcysteinyl synthetase (gamma-GCS) (Rattus norvegicus, UniProt P19468).
T1 sequence (P19468 1-637): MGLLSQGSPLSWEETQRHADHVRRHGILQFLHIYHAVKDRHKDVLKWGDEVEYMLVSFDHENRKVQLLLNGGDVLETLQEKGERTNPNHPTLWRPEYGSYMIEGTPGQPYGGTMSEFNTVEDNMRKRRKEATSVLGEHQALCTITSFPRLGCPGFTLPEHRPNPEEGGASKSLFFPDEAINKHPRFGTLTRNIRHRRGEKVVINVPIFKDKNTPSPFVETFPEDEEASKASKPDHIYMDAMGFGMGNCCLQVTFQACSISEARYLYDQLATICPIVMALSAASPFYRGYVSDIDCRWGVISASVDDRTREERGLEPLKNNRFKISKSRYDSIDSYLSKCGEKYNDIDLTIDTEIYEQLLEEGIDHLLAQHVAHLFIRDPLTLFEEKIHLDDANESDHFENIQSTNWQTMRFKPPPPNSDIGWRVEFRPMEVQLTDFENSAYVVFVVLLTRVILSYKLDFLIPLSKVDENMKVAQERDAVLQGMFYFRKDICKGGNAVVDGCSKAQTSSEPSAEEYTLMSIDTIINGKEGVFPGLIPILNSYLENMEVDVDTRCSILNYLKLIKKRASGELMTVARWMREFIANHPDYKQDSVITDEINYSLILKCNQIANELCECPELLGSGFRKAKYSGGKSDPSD
T1 sequence (P48508 1-274 partner): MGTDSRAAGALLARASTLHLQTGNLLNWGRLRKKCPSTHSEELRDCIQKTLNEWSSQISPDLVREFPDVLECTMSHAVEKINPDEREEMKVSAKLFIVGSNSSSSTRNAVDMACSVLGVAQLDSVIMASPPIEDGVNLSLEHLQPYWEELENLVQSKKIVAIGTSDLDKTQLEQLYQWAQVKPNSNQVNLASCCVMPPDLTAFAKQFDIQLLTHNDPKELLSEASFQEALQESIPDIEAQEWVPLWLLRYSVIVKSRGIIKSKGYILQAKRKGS
The settings on record: mammalian systems, literature; cited from earlier work.

For a further series, the system named is glutamine synthetase. To be noted: mammalian systems, literature; cited from earlier work.
The next series deals with E. coli. Put plainly: Patients with E. coli septicemia. The class given is in vivo. As to the method:
A person with fever, mild hypotension, and moderate hematuria has blood and urine cultures that are positive for E. coli. They are given a diagnosis of E. coli septicemia and urinary tract infection. […]
A person with E. coli sepsis presents feeling nauseated and gravely ill. However, their blood pressure is stable. They receive a standard regimen of IV antibiotics, including ampicillin and gentamicin as well as the siderophore ferrioxamine B at a dose of 10 mg/kg.
A person with E. coli sepsis presents with a blood pressure of 80/50 mm Hg. Broad spectrum antibiotics are initiated including ampicillin and gentamicin. […] The patient then receives an intravenous dose of nitrosated chloramphenicol, 12.5 mg four times/day IV together with methylene blue IV at a dose of 5 mg/kg as well as fluid support.

The test system of series [2] is benign prostatic hypertrophy. Put plainly: Patients with benign prostatic hypertrophy. Format: in vivo. The settings on record: prostate-implanted polymer pellets releasing each agent at 1 μmol/hr. From the text: A person presents with a history of urinary hesitancy and multiple awakenings during the night. They are given a diagnosis of benign prostatic hypertrophy. Under stereotactic guidance, the patient's enlarged prostate gland is implanted with several porus polymer pellets designed to slowly release L-buthionine-S-sulfoximine (1 μmol/hr) and S-nitrosocysteine (1 μmol/hr). […] They then have nearly normal urine flow and usually wakes no more than once per night.
A similar patient with benign prostatic hypertrophy and very marked enlargement of their prostate is treated with NO-substituted finasteride (NO-substituted Proscar; 5 mg/day). NO-substitution is accomplished by replacement of the tert-butyl amine moiety of finasteride with S-nitroso-β-thio-tert-butyl amine.
A person with benign prostatic hypertrophy is treated with Finisteride (Proscar: 5 mg/day) and oral buthionine-S-sulfoximine at a dose of 10 mmol/kg four time/day.

For series [3], the system named is wild type E. coli and glutathione deficient E. coli. As to the kind of experiment: Bacterial growth (O.D. 600 nm) with nitrosating agent. Format: cell-based. As for the experimental part: In a first experiment, six runs were carried out. In three of the runs, wild type E. coli were incubated in bacterial growth medium. In the other three runs, E. coli lacking a gene essential for glutathione production (in particular, lacking a gene expressing gamma-glutamylcysteine synthetase, hereinafter glutathione deficient E. coli) were incubated in the bacterial growth medium. In one run, for each of the wild type E. coli and the glutathione deficient E. coli, no nitrosating agent was employed. In one run, for each of the wild type E. coli and the glutathione deficient E. coli, 0.5 mM S-nitrosocysteine (a nitrosating agent) was added after two hours. In one run, for each of the wild type E. coli and the glutathione deficient E. coli, 0.2 mM S-nitrosocysteine was added initially and 0.5 mM S-nitrosocysteine was added at the two hour mark. In each run, starting at the two hour mark and every 15 or 30 minutes thereafter, bacterial cell density (i.e., growth) was measured. […]
In a second experiment, six runs were carried out the same as in the first experiment. In this case, the results are shown in FIG. 2 where bacterial growth (measured as optical density (O.D.) 600 nm) is plotted on a log axis versus time (after two hours) and where “wt” and the plus and minus sign mean the same as in FIG. 1 and “gsh^−” means glutathione deficient E. coli. […]

For series [4], the system named is restenosis. As to the kind of experiment: Patients with coronary stenosis treated to prevent restenosis. The class given is in vivo.
Another series deals with Salmonella. As to the kind of experiment: Patients with Salmonella septicemia or gastroenteritis. The class given is in vivo. To be noted: septicemia; sodium nitrate 200 mg/kg i.v. twice a day and ethacrynic acid 50 mg four times a day p.o.
Series [5] deals with Mycobacterium tuberculosis. To be noted: in vivo.
Series [6] deals with restenosis. As to the kind of experiment: Patients with coronary stenosis treated to prevent restenosis. Format: in vivo. The source says: BSO therapy is continued for one week.
A person with blue eyes and gray hair presents with chest pain. […] The patient undergoes balloon angioplasty and placement of a Palmaz-Schatz stent, which is P^32-implanted and coated with a cyclodextran polymer to which BSO is attached by an ester linkage.
A patient similar to the one described above undergoes balloon angioplasty and placement of a Palmaz-Schatz stent which is coated with cyclodextran polymer to which ethyl maleate is attached by an ester linkage. […]
A person with restenosis six months post angioplasty has a Palmaz-Schatz stent placed. The stent is coated with a porous polymer containing 10% of the siderophore ferrioxamine B and 0.1% each of interleukin-1 and interferon-gamma. The latter agents induce the local expression of the inducible isoform of nitric oxide synthase. […]
The source holds these as a separate data set.

[7] abbreviates: 32P-implanted stent, S-nitrosocysteine and ethacrynic acid 50–200 mg twice a day p.o.
Where [8] appears, read: stent coated with porous polymer containing 10% ferrioxamine B and 0.1% each of interleukin-1 and interferon-gamma.

Structures can show the parent of a compound that is named as a salt.

Data on 15 molecules can be found in patent US7022737B2, “Manipulating nitrosative stress to kill pathologic microbes, pathologic helminths and pathologically proliferating cells or to upregulate nitrosative stress defenses” (Duke University, priority 1996, dated 2006).

For `CCC[S@](=N)(=O)CCC(N)C(=O)O` (mixture of isomers) [DL-prothionine-SR-sulfoximine], the “inhibition of gamma-GCS” value in series [1] is listed as “inhibited”. In the series on glutamine synthetase, the “inhibition of glutamine synthetase” value was “did not significantly inhibit”.

Take `CCC(N)(CCS(C)(=N)=O)C(=O)O` (racemic) [α-ethyl-DL-methionine-SR-sulfoximine]: the “inhibition of gamma-GCS” value in [1] is listed as “did not significantly inhibit”. For the same molecule, the “inhibition of glutamine synthetase” value in the series with glutamine synthetase was “inhibited”.

For the molecule `CC(C[C@H](N)C(=O)O)SN=O` (stereo partly drawn) [S-nitroso-gamma-methyl-L-homocysteine], the clinical outcome in the series with E. coli (septicemia and urinary tract infection, α-ethyl BSO 4 mmol/kg four times a day p.o., S-nitroso-gamma-methyl-L-homocysteine 50 μg/kg i.v., gentamicin) was “symptoms resolve and blood and urine cultures are negative for E. coli after two weeks”.

Take `N[C@@H](CSN=O)C(=O)O` [S-nitrosocysteine]: the clinical outcome in the series with E. coli (100 nmol/kg i.v. alone) was “partial remission in their disease accompanied by mild hypotension”; with E. coli (S-nitrosocysteine continued plus desferoximine 1 gm then 0.5 gm every 4 hr for two days), “relief of hypotension and complete resolution of septicemia”; in series [2] it was “symptoms improve over a period of three weeks”; with restenosis [4] (setting [7]), “symptoms improve”; with restenosis [4] (BSO-releasing polymer stent and S-nitrosocysteine 100 nmol/kg intracoronary infusion), “follow-up angiogram shows no restenosis”; in the series with restenosis [4] (S-nitrosocysteine 100 nmol/kg six times a day for one week intracoronary, 32P-implanted stent), “successfully prevents restenosis”. Also, the “effect of pretreatment on later treatment” value in series [3] (0.2 mM pretreatment, 0.5 mM at two hours) is “Induces Resistance to Later Treatment with Nitrosating Agent”. The bacterial growth entry in series [3] (0.5 mM added at two hours, with or without 0.2 mM pretreatment) is on record as “reduces rate of bacterial growth”.

For the molecule `C[C@@H]1[C@H](O)[C@@H](C)/C=C/C=C/C=C/C=C/C=C/C=C/C=C/[C@H](O[C@@H]2O[C@H](C)[C@@H](O)[C@H](N)[C@@H]2O)C[C@@H]2O[C@](O)(C[C@@H](O)C[C@@H](O)[C@H](O)CC[C@@H](O)C[C@@H](O)CC(=O)O[C@H]1C)C[C@H](O)[C@H]2C(=O)O` [amphotericin B], the adverse effects result in the series on Histoplasma capsulatum (1 mg/day i.v., after one week) is “elevated blood urea nitrogen level and other evidence of renal failure”. For the same molecule, in the series with Histoplasma capsulatum (dose reduced to 0.5 mg/day), the clinical outcome is “no resolution of disease”.

Regarding `C=C(CC)C(=O)c1ccc(OCC(=O)O)c(Cl)c1Cl` [ethacrynic acid], the clinical outcome was “symptoms resolve in two days” with Salmonella and “symptoms improve” in the series with restenosis [4] (setting [7]).

Consider `CC[C@@H](CO)NCCN[C@@H](CC)CO` [ethambutol], for which the adverse effects entry in series [5] was “loss of color vision and gastrointestinal intolerance”.

As to `CCOC(=O)/C=C\C(=O)OCC` [ethyl maleate], the clinical outcome in the series on restenosis [6] (stent coated with cyclodextran polymer with ethyl maleate attached by ester linkage) is recorded as “clinical restenosis does not occur”.

As to `CC(=O)N([O-])CCCCCNC(=O)CCC(=O)N([O-])CCCCCNC(=O)CCC(=O)N([O-])CCCCCN.[Fe+3]` [ferrioxamine B], the clinical outcome is “does not develop the clinical syndrome of hypotension and organ failure” in the series with E. coli (10 mg/kg with IV ampicillin and gentamicin); “restenosis does not occur” with restenosis [6] (setting [8]).

On to `N[C@@H](Cc1ccc(N(CCCl)CCCl)cc1)C(=O)O` [melphalan], for which the clinical outcome is on record as “symptoms resolve” in [5] (po) and “clinical restenosis does not occur” with restenosis [6] (stent coated with ONO-substituted polymer with 10% melphalan attached).

Consider `CS(=N)(=O)CC[C@H](N)C(=O)O` (some centres unmarked) [methionine sulfoximine], for which the “inhibition of gamma-GCS” value in series [1] is recorded as “potently inhibits”. Moreover, in the series on glutamine synthetase, the “inhibition of glutamine synthetase” value is “potently inhibits”.

In the case of `CN(C)c1ccc2nc3ccc(=[N+](C)C)cc-3sc2c1` [methylene blue], in the series with E. coli (nitrosated chloramphenicol 12.5 mg four times/day IV with methylene blue IV 5 mg/kg and fluid support), the “time to restored blood pressure” value came out at 24 h.

As for `O=[N+]([O-])[O-].[Na+]` [sodium nitrate], the clinical outcome with Salmonella was “symptoms resolve in two days”.

As to “interferon-gamma: cytokine inducing inducible nitric oxide synthase”, the clinical outcome in the series on restenosis [6] (setting [8]) is recorded as “restenosis does not occur”.

As to interleukin-1, the clinical outcome in the series on restenosis [6] (setting [8]) is listed as “restenosis does not occur”.
